According to EP2886535A1, “Novel veterinary isometamidium compositions and similar substances and uses thereof” (Ceva Sante Animale, priority 2013, dated 2015):
Like-named read-outs stand apart in the source and are kept apart here.

Tests used:
T. b. brucei = experiment: In vitro drug sensitivity test on cultured bloodstream forms, 48 h; assay type: cell-based; conditions: for IC50: 48 h exposure, 37 °C
Text: (§1) Les souches T. congolense et T. b. brucei (formes sanguines) ont été cultivées in vitro selon le protocole décrit par Baltz et al. (Embo. J. 1985, 4, 1273-1277) et Coustou et al. (PLOS Negl. Trop. Dis., 2010, 4, 618).
(§2) L'isométamidium a été synthétisé et a été purifié par HPLC (220 nm). L'analyse de sa structure a été confirmée par LC /MS et par RMN 1H et 13C et un degré de pureté de 99,7 % a été obtenu. L'isométamidium pur ainsi que les formulations commerciales Veridium® et Samorin® ont été dissous dans de l'eau distillée (10 mg / ml) et ont été conservés à -20°C avant utilisation.
(§3) Les trypanosomes sont ajoutés dans des plaques de culture cellulaire 96 puits incubées à 34 °C (T. congolense) ou à 37 °C (T. b. brucei) sous atmosphère de CO2 (4 %) pendant 4 heures avant l'ajout des composés qui ont été dilués en série 1/10^eme. 100 µl de chaque dilution ont été ensuite ajoutés à 100 µl de culture dans les puits (2 puits pour chaque dilution de 1 mg/ml jusqu'à 1.10^-19 mg/ml) puis le milieu est incubé à 34 °C (T. congolense) ou à 37 °C (T. b. brucei) sous atmosphère de CO2 (4 %) pendant 48 heures. Les IC50 (Concentration qui réduit de 50% la population parasitaire au bout de 48 heures de culture) ont été calculées en utilisant le logiciel de traitement de données Sigmaplot version 12.
(§4) Les souches T. congolense et T. b. brucei (formes sanguines), les différents composés et leur IC50 ont été, respectivement, cultivées in vitro, préparés et évaluées selon le protocole décrit dans l'exemple 1. Les puretés respectives pour chaque composé obtenu étaient de 97,6 % pour l'isomère bleu, 95,4% pour l'isomère rouge et 97,9 % pour le composé disubstitué.

T. congolense [1] = experiment: as above; assay type: cell-based; conditions: for IC50: 48 h exposure, 34 °C; for activité trypanocide inférieure à celle des formulations commerciales: versus Veridium and Samorin, 48 h, up to about
Text: as §1, §2, §3, §4

T. congolense [2] = experiment: In vivo curative and preventive activity in infected and monthly re-infected mice; design: species or system souris femelles swiss (CD1); conditions: for Nombre de souris avec une parasitemia positive: n=5; for activité curative et préventive (durée): dose 1 mg/kg
Protocol: La souche T. congolense est cultivée et les différents composés sont préparés selon les protocoles de culture et de préparation décrits pour les tests in vitro (Exemples 1 et 2).
Des parasites de la souche de T. congolense ont été initialement propagés dans des souris femelles swiss (CD1) âgées de 8 semaines (200 mg/kg). Ces souris sont ensuite infectés par voie intrapéritonéale avec 10^5 trypanosomes de souche T. congolense dans un volume final de 200 µl de tampon phosphate glucose (137 mM NaCl, 10 mM phosphate, […], pH 7,4, 1% glucose). Les souris sont alors traitées par les composés à tester 24 heures après l'infection (5 souris traités par composé à tester + un groupe témoin). Chaque composé testé est injecté par voie intrapéritonéale et à des concentrations de 1 et 0,1 mg/kg de poids corporel dans un volume final de 100 µl d'eau stérile. Les souris témoins non traitées reçoivent 100 µl d'eau stérile après infection. La parasitémie a été évaluée 2 fois par semaine au microscope à partir d'échantillons de sang prélevés sur la veine caudale. Afin d'évaluer la persistance des composés, les souris qui étaient parasite-négatives après un mois ont été ré-infectées avec 10^5 trypanosomes. La réinfection a été répétée après le deuxième et troisième mois à partir de l'infection initiale et du traitement si les souris infectées étaient toujours aparasitémiques (sans parasites dans le sang). La réinfection a été réalisée avec des parasites provenant de souris témoins infectées de manière chronique pour éviter une réponse immunitaire immédiate due à la présence d'anticorps homologues anti-VSG. Deux souris non-traitées (Témoin) ont été infectées à chaque infection et réinfection. Le traitement a été considéré inefficace quand plus de 2 souris sur 5 dans un groupe étaient parasite-positives.

T. congolense [3] = conditions: mice, Brown et al. 1961; purity of compounds unsatisfactory; cited from earlier work
T. congolense [4] = conditions: cattle, Finelle et al. 1963; cited from earlier work
[5] = Trypanosoma brucei, read-out: IC50
[6] = Trypanosoma congolense, read-out: IC50

| SMILES | IC50 (T. b. brucei) | IC50 (T. b. brucei; [5]) [µg/mL] | IC50 (T. congolense [1]) | IC50 (T. congolense [1]; [6]) [µg/mL] | Nombre de souris avec une parasitemia positive (T. congolense [2]; dose 0.1 mg/kg i.p., 1 mois) | activité curative et préventive (durée) (T. congolense [2]) | Nombre de souris avec une parasitemia positive (T. congolense [2]; dose 1 mg/kg i.p., 1 mois) | Nombre de souris avec une parasitemia positive (T. congolense [2]; dose 1 mg/kg i.p., 2 mois) | activité trypanocide in-vivo (T. congolense [3]) | activité trypanocide inférieure à celle des formulations commerciales (T. congolense [1]) [fois] | Nombre de souris avec une parasitemia positive (T. congolense [2]; dose 0.1 mg/kg i.p., 2 mois) | Nombre de souris avec une parasitemia positive (T. congolense [2]; dose 1 mg/kg i.p., 3 mois) | also measured |
| --- | --- | --- | --- | --- | --- | --- | --- | --- | --- | --- | --- | --- | --- |
| CC[n+]1c(-c2ccccc2)c2cc(N=NNc3cccc(C(=N)N)c3)ccc2c2ccc(N=NNc3cccc(C(=N)N)c3)cc21 [Composé disubstitué pur, 3,8-di-(3-m-amidinophenyltriazeno)-5-éthyl-6-phénylphénanthridium] | >1 µg/mL | > 1 | 66,27 ± 14,37 ng/ml | 0.0663 | 5 | pendant au moins trois mois | 0 | 0 | activité prophylactique et non curative | – | – | – | Nombre de souris avec une parasitemia positive (T. congolense [2]; dose 1 mg/kg i.p., 3 mois, listed as Composé disubstitué, 1 mg/kg): 1; Nombre de souris avec une parasitemia positive (T. congolense [2]; dose 1 mg/kg i.p., 3 mois, listed as composé disubstitué, 1 mg/kg): seule une souris est parasite-positive; Nombre de souris avec une parasitemia positive (T. congolense [2]; dose 1 mg/kg i.p., 4 mois, listed as Composé disubstitué, 1 mg/kg): 4; Nombre de souris avec une parasitemia positive (T. congolense [2]; dose 1 mg/kg i.p., 4 mois, listed as composé disubstitué, 1 mg/kg): la seule souris parasite-négative; protection / activité curative (T. congolense [4]): permettait de protéger les bovins contre T. congolense, mais était dépourvu de toute activité curative |
| CC[n+]1c(-c2ccccc2)c2c(N=Nc3cccc(C(=N)N)c3)c(N)ccc2c2ccc(N)cc21 [Isomère bleu, 7-(m-amidinophényldiazo)-3,8-diamino-5-éthyl-6-phényl phénanthridinium, reference compound] | 12,01 ± 2,22 ng/ml | 0.012 | 7,11 ± 0,76 ng/ml | 0.00711 | 0 | n'est plus significative au bout de deux mois | 0 | 4 | activité trypanocide curative | ≤ 10 | 5 | – | protection des souris d'une infection (durée) (T. congolense [2]; dose 0,1 mg/kg): ne sont actifs que pendant un mois |
| CC[n+]1c(-c2ccccc2)c2cc(N)ccc2c2ccc(N=NNc3cccc(C(=N)N)c3)cc21 [Isomère rouge, 3-(3-m-amidinophényl-2-triazeno)-8-amino-5-éthyl-6-phénylphénanthridinium] | 202,15 ± 62,92 ng/ml | 0.202 | 3,63 ± 0,55 ng/ml | 0.00363 | 0 | – | 0 | 1 | – | ≤ 10 | 5 | 5 | activité trypanocide inférieure à celles des compositions commerciales (T. b. brucei; versus commercial compositions, 48 h): ~20 fois |
| CC[n+]1c(-c2ccccc2)c2cc(N/N=N/c3cccc(C(=N)N)c3)ccc2c2ccc(N)cc21 [Isométamidium pur, 8-(3-m-amidinophényl-2-triazeno)-3-amino-5-éthyl-6-phénylphénanthridinium] | 9,24 ± 2,13 ng/ml | 0.00924 | 0,56 ± 0,05 ng/ml | 0.00056 | 0 | – | 0 | 0 | – | – | 0 | 0 | Nombre de souris avec une parasitemia positive (T. congolense [2]; dose 0.1 mg/kg i.p., 3 mois): 0; Nombre de souris avec une parasitemia positive (T. congolense [2]; dose 0.1 mg/kg i.p., 4 mois): 5; Nombre de souris avec une parasitemia positive (T. congolense [2]; dose 1 mg/kg i.p., 4 mois): 5 |
